Key:
[1] = system: SREBP; test: Reporter Screening Assay (SRE-luciferase reporter, HepG2); assay type: cell-based; details: Homo sapiens; SRE-luciferase reporter HepG2 cells, 24 hours, 0.01 uM to 10 uM; read-out: I: Reporter Screening Assay (Ave EC50 (nM))
In short: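 HepG2 SREBP reporter cells carrying an SRE-luciferase construct were serum-washed, then treated for 24 h at 37° C with compounds (0.01 uM to 10 uM) in phenol-free medium with varying FBS levels. Total luminescence was read after a 30 min incubation with luciferase substrate.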

[2] = system: EJ28; test: Cancer cell growth inhibition; assay type: cell-based; details: Homo sapiens, EJ-28; EJ28 (bladder), 72 hr treatment
In short: (§1)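 Cells were exposed to compound for 72 hr in growth media, with six 10-fold dilutions prepared in DMSO as stocks from 10 mM to 0.1 uM and 0.1% final DMSO. Single data points per concentration. Growth was measured by sulforhodamine B protein staining.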

[3] = system: TE671; test: Cancer cell growth inhibition; assay type: cell-based; details: Homo sapiens, TE-671; TE671 (muscle), 72 hr treatment
In short: as §1

[4] = system: MG63; test: Cancer cell growth inhibition; assay type: cell-based; details: Homo sapiens, MG-63; MG63 (bone), 72 hr treatment
In short: as §1

[5] = system: NCIH358M; test: Cancer cell growth inhibition; assay type: cell-based; details: NCI-H358M; NCIH358M (lung), 72 hr treatment
In short: as §1

[6] = system: MCF7; test: Cancer cell growth inhibition; assay type: cell-based; details: Homo sapiens; MCF7 (breast), 72 hr treatment
In short: as §1

[7] = system: 786O; test: Cancer cell growth inhibition; assay type: cell-based; details: Homo sapiens, 786-0; 786O (kidney), 72 hr treatment
In short: as §1

[8] = system: PLCPRF5; test: Cancer cell growth inhibition; assay type: cell-based; details: Homo sapiens, PLC-PRF-5; PLCPRF5 (liver), 72 hr treatment
In short: as §1

[9] = Stability in mouse liver microsomes; assay type: in vitro ADME
In short: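 Mouse liver microsomes, run by the same procedure as for human microsomes: 100 μM working solution pre-incubated with microsomes in 100 mM potassium phosphate buffer for 10 min at 37° C, then incubated 60 min at 37° C with NADPH cofactor, plus a no-cofactor control. Remaining compound quantified by LC-MS/MS.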

| EC50 [1] [nM] | IC50 [2] [µM] | IC50 [3] [µM] | IC50 [4] [µM] | IC50 [5] [µM] | IC50 [6] [µM] | IC50 [7] [µM] | IC50 [8] [µM] | percent parent remaining after 60 min in liver microsomes [9] | SMILES |
| --- | --- | --- | --- | --- | --- | --- | --- | --- | --- |
| < 249 | > 10 | < 10 | > 10 | < 10 | < 10 | < 10 | < 10 | +++ (>60.1 = +++) | CS(=O)(=O)Nc1ccc(-c2cc(-c3ccnc4c3OCCO4)cs2)c(Cl)c1 [Compound I-9017, N-(3-chloro-4-(4-(2,3-dihydro-[1,4]dioxino[2,3-b]pyridin-8-yl)thiophen-2-yl)phenyl)methanesulfonamide] |
| < 249 | > 10 | < 10 | > 10 | < 10 | < 10 | < 10 | < 10 | +++ (>60.1 = +++) | CC(C)(O)Cc1cc(-c2csc(-c3ccc(NS(C)(=O)=O)cc3Cl)c2)ccn1 [Compound I-9004, N-(3-chloro-4-(4-(2-(2-hydroxy-2-methylpropyl)pyridin-4-yl)thiophen-2-yl)phenyl)methanesulfonamide] |
| < 249 | > 10 | < 10 | > 10 | < 10 | < 10 | < 10 | < 10 | +++ (>60.1 = +++) | CC(C)(CO)c1cc(-c2csc(-c3ccc(NS(C)(=O)=O)cc3Cl)c2)ccn1 [Compound I-8909, N-(3-chloro-4-(4-(2-(1-hydroxy-2-methylpropan-2-yl)pyridin-4-yl)thiophen-2-yl)phenyl)methanesulfonamide] |

Source: patent US20220056018A1, “SREBP INHIBITORS COMPRISING A THIOPHENE CENTRAL RING” (Capulus Therapeutics, LLC, priority 2019, published 2022)
